Assay results: US20090240027A1, “INTERMEDIATES FOR MACROCYCLIC COMPOUNDS” (Tranzyme Pharma Inc., priority 2003, published 2009)

molecular target: human motilin receptor (Homo sapiens, UniProt O43193); assay: Competitive radioligand binding assay (Method B1); design: purchased PerkinElmer 6110544; host or cells: CHO cells, stably transfected (membranes); conditions: Radioligand competitive binding assay, Method B1; values reported as ranges; read-out: Ki (binding activity)
Protocol: Competitive Radioligand Binding Assay (Motilin Receptor)
• Membranes were prepared from CHO cells stably transfected with the human motilin receptor and utilized at a quantity of 1.5 μg/assay point.
Final Test Concentrations (N=11) for Compounds:
Compounds were provided frozen on dry ice at a stock concentration of 10 mM diluted in 100% DMSO and stored at −20° C. until the day of testing. On the test day, compounds were allowed to thaw at room temperature and than diluted in assay buffer according to the desired test concentrations. Under these conditions, the maximum final DMSO concentration in the assay was 0.5%.
Plates are sealed with TopSeal-A, vortexed gently and incubated at room temperature for 2 hours. The reaction is arrested by filtering samples through pre-soaked (0.3% polyethyleneimine, 2 h) Multiscreen Harvest plates using a Tomtec® Harvester (Tomtec, Hamden, Conn.)), washed 9 times with 500 μL of cold 50 mM Tris-HCl (pH 7.4), and than plates are air-dried in a fumehood for 30 minutes. A bottom seal is applied to the plates prior to the addition of 25 μL of MicroScint-0™ to each well.
Data are analyzed by GraphPad™ Prism (GraphPad Software, San Diego, Calif.) using a variable slope non-linear regression analysis.
where total and non-specific binding represent the cpm obtained in the absence or presence of 1 μM motilin, respectively.

Sequence of human motilin receptor (O43193 whole entry): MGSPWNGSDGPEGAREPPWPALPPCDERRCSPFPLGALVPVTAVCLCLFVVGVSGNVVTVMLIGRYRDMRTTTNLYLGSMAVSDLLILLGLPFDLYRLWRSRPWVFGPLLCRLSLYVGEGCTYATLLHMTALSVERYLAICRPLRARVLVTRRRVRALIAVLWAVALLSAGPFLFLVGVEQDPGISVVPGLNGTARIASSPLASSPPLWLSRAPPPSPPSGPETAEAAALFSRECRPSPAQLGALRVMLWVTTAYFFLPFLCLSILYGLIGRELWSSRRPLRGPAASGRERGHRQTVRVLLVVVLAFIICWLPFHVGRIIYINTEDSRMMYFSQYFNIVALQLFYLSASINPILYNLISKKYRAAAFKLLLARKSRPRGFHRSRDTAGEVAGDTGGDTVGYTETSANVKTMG

Ki [nM] | Compound
1 to 100 | CCC[C@@H]1NC(=O)[C@@H](C(C)C)NC(=O)[C@@H](Cc2ccc(F)cc2)NCCOc2ccccc2CCCNC1=O [Compound 19]
1 to 100 | CC(C)C[C@@H]1NC(=O)[C@@H](C(C)C)NC(=O)[C@@H](Cc2ccc(O)cc2)NCCOc2ccccc2/C=C/CNC1=O [Compound 10]
100 to 1000 | CCCC1NC(=O)C(C(C)(C)C)NC(=O)C(Cc2ccc(O)cc2)NCCOc2ccccc2CCCNC1=O (stereo not drawn) [Compound 92]
100 to 1000 | CCCC1NC(=O)C(C(C)C)NC(=O)C(Cc2ccc(-c3ccccc3)cc2)NCCOc2ccccc2CCCNC1=O (stereo not drawn) [Compound 87]
1000 to 10000 | CCCC1NC(=O)C(Cc2ccc3ccccc3c2)NC(=O)C(Cc2ccc(O)cc2)NCCOc2ccccc2C=CCNC1=O (stereo not drawn) [Compound 76]
100 to 1000 | CC(C)CC1NC(=O)C(C(C)C)NC(=O)C(Cc2cccc3ccccc23)NCCOc2cccnc2CCCNC1=O (stereo not drawn) [Compound 136]
100 to 1000 | CC(C)C1NC(=O)C(Cc2ccc(O)cc2)NCCOc2ccccc2C=CCNC(=O)C(Cc2ccc3ccccc3c2)NC1=O (stereo not drawn) [Compound 72]
1 to 100 | CCC[C@@H]1NC(=O)[C@@H](C(C)C)NC(=O)[C@@H](Cc2ccc(OC)c(OC)c2)NCCOc2ccccc2CCCNC1=O [Compound 172]
1000 to 10000 | CCCC1NC(=O)C(C(C)C)NC(=O)C(C(c2ccccc2)c2ccccc2)NCCOc2ccccc2CCCNC1=O (stereo not drawn) [Compound 90]
100 to 1000 | CC(C)C1NC(=O)C(Cc2ccc(O)cc2)NCCOc2ccccc2C=CCNC(=O)C(Cc2ccc(O)cc2)NC1=O (stereo not drawn) [Compound 58]
100 to 1000 | CCCC1NC(=O)C(C(C)C)NC(=O)C(Cc2ccc(CN)cc2)NCCOc2ccccc2CCCNC1=O (stereo not drawn) [Compound 161]
100 to 1000 | CC(C)C1NC(=O)C(Cc2ccc(O)cc2)NCCOc2ccccc2C=CCNC(=O)C(c2ccccc2)NC1=O (stereo not drawn) [Compound 52]
100 to 1000 | CCC(C)C1NC(=O)C(C(C)C)NC(=O)C(Cc2ccc(O)cc2)NCCOc2ccccc2C=CCNC1=O (stereo not drawn) [Compound 80]
100 to 1000 | CC(C)C1NC(=O)C(Cc2cccc3ccccc23)NCCOc2ccccc2CCCNC(=O)C(CO)NC1=O (stereo not drawn) [Compound 179]
100 to 1000 | CC(C)C[C@@H]1NC(=O)[C@@H](C(C)C)NC(=O)[C@@H](Cc2ccc3ccccc3c2)NCCOc2ccccc2CCCNC1=O [Compound 14]
100 to 1000 | CCCC1NC(=O)C(C(C)C)NC(=O)C(Cc2ccc(O)cc2)NCCOc2ccccc2CCNC1=O (stereo not drawn) [Compound 177]
1000 to 10000 | CCCC1NC(=O)C(Cc2ccccc2)NC(=O)C(Cc2ccc(O)cc2)NCCOc2ccccc2C=CCNC1=O (stereo not drawn) [Compound 41]
100 to 1000 | CC(C)C1NC(=O)C(Cc2ccc(O)cc2)NCCOc2ccccc2C=CCNC(=O)C(CCCCN)NC1=O (stereo not drawn) [Compound 55]
100 to 1000 | CC(C)CC1NC(=O)C(C(C)C)NC(=O)C(Cc2ccccc2)NCCOc2ccccc2CCCNC1=O (stereo not drawn) [Compound 13]
100 to 1000 | CCCC1NC(=O)C(C(C)CC)NC(=O)C(Cc2ccc(O)cc2)NCCOc2ccccc2CCCNC1=O (stereo not drawn) [Compound 159]
1000 to 10000 | CCCC1NC(=O)CCNC(=O)C(Cc2ccc(O)cc2)NCCOc2ccccc2CCCNC1=O (stereo not drawn) [Compound 96]
1 to 100 | CCC[C@@H]1NC(=O)[C@@H](C(C)C)NC(=O)[C@@H](Cc2cccc(C)c2)NCCOc2ccccc2CCCNC1=O [Compound 163]
100 to 1000 | CC(C)C1NC(=O)C(Cc2cccs2)NCCOc2ccccc2CCCNC(=O)C(CN)NC1=O (stereo not drawn) [Compound 154]
100 to 1000 | CCCC1NC(=O)C(CC)NC(=O)C(Cc2ccc(O)cc2)NCCOc2ccccc2CCCNC1=O (stereo not drawn) [Compound 18]
1000 to 10000 | COc1ccc(CC2NC(=O)C(C(C)C)NC(=O)C(Cc3ccc(O)cc3)NCCOc3ccccc3C=CCNC2=O)cc1 (stereo not drawn) [Compound 60]
100 to 1000 | CCCCC1NC(=O)C(C(C)C)NC(=O)C(Cc2ccc(O)cc2)NCCOc2ccccc2C=CCNC1=O (stereo not drawn) [Compound 7]
100 to 1000 | CC(C)CC1NC(=O)C(C(C)C)NC(=O)C(Cc2cccs2)NCCOc2ccccc2CCCNC1=O (stereo not drawn) [Compound 130]

Compound | Ki [nM]
CCC[C@@H]1NC(=O)[C@@H](C(C)C)NC(=O)[C@@H](Cc2cccc(OC)c2)NCCOc2ccccc2CCCNC1=O [Compound 165] | 1 to 100

same assay, conditions: result in words; linear analogue of compound 1

Binding activity | Compound
lack of binding activity | CCC[C@H](NC(=O)[C@H](NC(=O)[C@@H](Cc1ccc(O)cc1)NCCOc1ccccc1/C=C/CNC(C)=O)C(C)C)C(N)=O [Compound 121]

molecular target: T1, motilin receptor (Oryctolagus cuniculus, UniProt G1T803); assay: Rabbit duodenum contractility assay (Method B4); conditions: not given
T1 construct: Duodenal segments were vertically suspended in organ chambers; from tissue; host or cells: rabbit duodenum segments
T1 sequence (G1T803 1-400): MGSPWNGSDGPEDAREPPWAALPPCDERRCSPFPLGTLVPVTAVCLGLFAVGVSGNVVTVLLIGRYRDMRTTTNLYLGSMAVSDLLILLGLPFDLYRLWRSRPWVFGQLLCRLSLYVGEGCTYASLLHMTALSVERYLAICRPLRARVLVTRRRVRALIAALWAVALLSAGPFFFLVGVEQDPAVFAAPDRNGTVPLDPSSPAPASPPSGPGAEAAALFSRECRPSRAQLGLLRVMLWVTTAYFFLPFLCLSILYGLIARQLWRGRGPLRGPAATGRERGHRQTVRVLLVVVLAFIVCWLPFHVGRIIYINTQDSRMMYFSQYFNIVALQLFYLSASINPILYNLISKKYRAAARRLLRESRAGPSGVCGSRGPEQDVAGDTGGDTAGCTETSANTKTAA
Protocol: Compounds of the present invention have shown significant antagonist activity in this assay.
Rabbit Duodenum Contractility Assay
Duodenal segments were vertically suspended in organ chambers of 10 mL filled with Krebs buffer and connected to an isotonic force transducer, with a preload of 1 g. After a stabilization period, the muscle strips were challenged with 10^−4 M acetylcholine and washed. This was repeated until a stable maximal contraction was obtained (2-3 times), with an interval of at least 20 minutes.
After a stable base line was reached, test compounds were added to the bath. After 15 min incubation, a dose response to motilin was recorded by adding logarithmically increasing concentrations of motilin to the bath (final concentration 10^−9 to 10^−6 M). A blank experiment (no test compound present) was also performed. At the end of the dose response curve, a supramaximal dose of acetylcholine (10^−4 M) was given and this response was used as a reference (100% contraction).
The results of experiments at different concentrations of test compound were combined and analyzed to derive the pA2 value from the Schild plot.

Compound | Kb [nM]
CCC[C@@H]1NC(=O)[C@@H](C(C)C)NC(=O)[C@@H](Cc2cccc(OC)c2)NCCOc2ccccc2CCCNC1=O [Compound 165] | 67.6
